Test results as given in US6492328B2, “Novispirins: antimicrobial peptides” (priority 2000, dated 2002).
Converted amounts (≈) assume the structure as drawn. Like-named read-outs stand apart in the source and are kept apart here. Where no end group is shown, it is not given here.

Tests used:
E. coli ML 35P [1] = conditions: underlay gel 60% RPMI-1640
Source text: (§1) Effect of serum. […] Because serum can be present in an inflammatory focus or exudate, the ability to function in the presence of serum would be a desirable property.
(§2) In these experiments, the underlay gel contained 60% RPMI-1640, ±2.5 or 20% normal human serum (NHS). The remainder of the solution was phosphate-buffered saline

P. aeruginosa MR 3007 = conditions: underlay gel 60% RPMI-1640
Source text: as §1, §2

S. maltophilia 18CP = assay: Novispirins vs S. maltophilia (Table 5); type: cell-based, Stenotrophomonas maltophilia; parameters: unit not given here; conditions: strain 18CP
Description: (§3) Microorganisms used in this study included 13 different Pseudomonas aeruginosa strains. The AML-654 and LZ-1 strains are recent clinical isolates from the UCLA Clinical Microbiology laboratory. Nine strains (5 mucoid, 4 nonmucoid) were recent CF isolates provided by Dr. Lisa Saiman. All of the P. aeruginosa strains except PAO-1 strain were resistant to multiple conventional antibiotics, and all 9 CF isolates were resistant to 250 μg/ml of tobramycin. We have also tested 5 strains each of Stenotrophomonas maltophilia and Burkholderia cepacia from CF patients (also provided by Dr. Lisa Saiman), two strains of Escherichia coli (ML-35p and DH-5a), and single strains of Staphylococcus aureus[MRSA (methicillin-resistant S. aureus)] and C. albicans.

S. maltophilia 36CN = assay: Novispirins vs S. maltophilia (Table 5); type: cell-based, Stenotrophomonas maltophilia; parameters: unit not given here; conditions: strain 36CN
Description: as §3

S. maltophilia 42CK = assay: Novispirins vs S. maltophilia (Table 5); type: cell-based, Stenotrophomonas maltophilia; parameters: unit not given here; conditions: strain 42CK
Description: as §3

S. maltophilia 47CG = assay: Novispirins vs S. maltophilia (Table 5); type: cell-based, Stenotrophomonas maltophilia; parameters: unit not given here; conditions: strain 47CG
Description: as §3

S. maltophilia 51Cl = assay: Novispirins vs S. maltophilia (Table 5); type: cell-based, Stenotrophomonas maltophilia; parameters: unit not given here; conditions: strain 51Cl
Description: as §3

E. coli = assay: Two stage radial diffusion assay with 10 mM HEPES, G10 variants (Table 8); type: cell-based; conditions: mean ± SEM, n = 3, in µg/mL
Source text: (§4) Amidation (—NH2) of the carboxy terminus in some of the novispirin G10 variants was designed to increase overall positive charge. The sequences of these peptides and their net charge is shown below in Table 7. The fractional (and pH dependent) charge on histidine12 was ignored in this calculation.
(§5) In Table 8, MIC signifies minimal inhibitory concentration, as determined by two stage radial diffusion assays. […] Shaded boxes show results that represent a significant improvement of activity (p<0.01 by t-test), relative to novispirin G10. […] None of the above G10 novispirin derivatives caused any hemolysis of human red blood cells, even when tested at 80 μg/ml. It is likely that other cationic amino acids (e.g., lysine, ornithine, etc) could also be used in position 12 to achieve better activity in the presence of calcium and magnesium ions.

K. pneumoniae = assay: as above; type: cell-based; conditions: mean ± SEM, n = 3, in µg/mL
Source text: as §4, §5

P. aeruginosa = assay: as above; type: cell-based; conditions: mean ± SEM, n = 3, in µg/mL
Source text: as §4, §5

S. aureus = assay: as above; type: cell-based; conditions: +1 mM Ca; mean ± SEM, n = 3; in µg/mL
Source text: as §4, §5

E. coli ML 35P [2] = type: cell-based, Escherichia coli; conditions: mean ± SEM, n = 3
Description: Antimicrobial activity. Several different methods were used to examine the antimicrobial properties of novispirins, including: a) two-stage radial diffusion assays; b) colony counting assays; and c) standard microbroth dilution assays.
Antimicrobial activity was tested in media with low, normal or high salinity. In radial diffusion assays, this was accomplished by using a low salt “basic medium” containing 0.3 mg of trypticase soy broth powder/ml of 10 mM sodium phosphate buffer, pH 7.4. Media with “normal” or “high” salinity were prepared by supplementing the basic medium with 100 mM NaCl to obtain media with normal salinity, or with 175-200 mM NaCl to obtain high salt media. Retention of activity against P. aeruginosa in high salt media is important because airway fluids from cystic fibrosis patients are reported to show hypersalinity, and other sites—including skin surfaces surfaces and the urinary bladder—may have locally high salt concentrations.
The relative activities of ovispirin and the novispirins against two organisms, E. coli and a multi-resistant strain of P. aeruginosa, are shown in FIG. 1. The MICs were obtained by radial diffusion assays performed under low, normal, and high salt conditions (which are denoted along the X-axis as 0, 100 and 200 mM NaCl, respectively).
Table 1 compares the activity of novispirins against these Gram-negative bacteria with its activity against Listeria monocytogenes, Staphylococcus aureus and C. albicans. […] Note that novispirins show activity against these Gram-positive bacteria when tested in physiological (100 mM NaCl) salt concentrations, and also that Novispirin G10 is quite active against C. albicans. Although neither ovispirin nor novispirins retained activity against C. albicans or the Gram positives under very high salt conditions (200 mM NaCl), they remained active against the Gram-negatives under these conditions. Consequently, even if the airways' NaCl concentrations are exceptionally high in CF patients, this factor will not impair the ability of ovispirin or novispirins to kill P. aeruginosa.

[3] = Very high salinity (+200 mM NaCl)

| Molecule | activity vs S. maltophilia (S. maltophilia 18CP; +100 mM NaCl) | activity vs S. maltophilia (S. maltophilia 18CP; +175 mM NaCl) | activity vs S. maltophilia (S. maltophilia 18CP; LOW SALT CONDITIONS) | activity vs S. maltophilia (S. maltophilia 36CN; +100 mM NaCl) | activity vs S. maltophilia (S. maltophilia 36CN; +175 mM NaCl) | activity vs S. maltophilia (S. maltophilia 36CN; LOW SALT CONDITIONS) | activity vs S. maltophilia (S. maltophilia 42CK; +100 mM NaCl) | activity vs S. maltophilia (S. maltophilia 42CK; +175 mM NaCl) | activity vs S. maltophilia (S. maltophilia 42CK; LOW SALT CONDITIONS) | activity vs S. maltophilia (S. maltophilia 47CG; +100 mM NaCl) | activity vs S. maltophilia (S. maltophilia 47CG; +175 mM NaCl) | activity vs S. maltophilia (S. maltophilia 47CG; LOW SALT CONDITIONS) | activity vs S. maltophilia (S. maltophilia 51Cl; +100 mM NaCl) | activity vs S. maltophilia (S. maltophilia 51Cl; +175 mM NaCl) | activity vs S. maltophilia (S. maltophilia 51Cl; LOW SALT CONDITIONS) | also measured |
| --- | --- | --- | --- | --- | --- | --- | --- | --- | --- | --- | --- | --- | --- | --- | --- | --- |
| CC[C@H](C)[C@H](NC(=O)[C@H](CCCCN)NC(=O)[C@H](CCC(=O)O)NC(=O)[C@H](CCCCN)NC(=O)[C@H](CO)NC(=O)[C@H](CCCCN)NC(=O)[C@H](CCCNC(=N)N)NC(=O)[C@H](Cc1ccccc1)NC(=O)[C@H](Cc1ccccc1)NC(=O)[C@H](CC(=O)O)NC(=O)CNC(=O)[C@H](CC(C)C)NC(=O)[C@@H](N)CC(C)C)C(=O)NCC(=O)N[C@@H](CCCCN)C(=O)N[C@@H](CCC(=O)O)C(=O)N[C@@H](Cc1ccccc1)C(=O)N[C@@H](CCCCN)C(=O)N[C@@H](CCCNC(=N)N)C(=O)N[C@H](C(=O)N[C@H](C(=O)N[C@@H](CCC(N)=O)C(=O)N[C@@H](CCCNC(=N)N)C(=O)N[C@H](C(=O)N[C@@H](CCCCN)C(=O)N[C@@H](CC(=O)O)C(=O)N[C@@H](Cc1ccccc1)C(=O)N[C@@H](CC(C)C)C(=O)N[C@@H](CCCNC(=N)N)C(=O)N[C@@H](CC(N)=O)C(=O)N[C@@H](CC(C)C)C(=O)N[C@H](C(=O)N1CCC[C@H]1C(=O)N[C@@H](CCCNC(=N)N)C(=O)N[C@H](C(=O)N[C@@H](CCC(=O)O)C(=O)N[C@@H](CO)C(=O)O)[C@@H](C)O)C(C)C)[C@@H](C)CC)C(C)C)[C@@H](C)CC [LL-37, reference compound] |  |  |  |  |  |  |  |  |  |  |  |  |  |  |  | MIC (E. coli ML 35P [1]; 0% NHS): 5.8 µg/mL (≈ 1.29 µM); MIC (E. coli ML 35P [1]; 2.5% NHS): 21.0 µg/mL (≈ 4.67 µM); MIC (P. aeruginosa MR 3007; 0% NHS): 12.7 µg/mL (≈ 2.83 µM); MIC (P. aeruginosa MR 3007; 2.5% NHS): 23.7 µg/mL (≈ 5.27 µM); MIC (P. aeruginosa MR 3007; 20% NHS): 141 µg/mL (≈ 31.4 µM) |
| CC(C)C[C@H](NC(=O)[C@H](CCCNC(=N)N)NC(=O)CNC(=O)CNC(=O)[C@@H](N)CCCNC(=N)N)C(=O)N[C@H]1CSSC[C@@H](C(=O)N[C@H](C(=O)NCC(=O)N[C@@H](CCCNC(=N)N)C(N)=O)C(C)C)NC(=O)[C@H](C(C)C)NC(=O)[C@@H]2CSSC[C@H](NC(=O)[C@H](Cc3ccc(O)cc3)NC1=O)C(=O)N[C@@H](CCCNC(=N)N)C(=O)N[C@@H](CCCNC(=N)N)C(=O)N[C@@H](CCCNC(=N)N)C(=O)N[C@@H](Cc1ccccc1)C(=O)N2 [Protegrin PG-1, reference compound] | 0.58 | 0.70 | 0.52 | 0.46 | 0.57 | 0.27 | 0.50 | 0.79 | 0.32 | 0.53 | 0.74 | 0.09 | 0.92 | 1.08 | 0.42 |  |
| GLLRRLRKKIGEIFKKYG [PGG, reference compound] | 1.63 | 2.34 | 0.86 | 1.05 | 1.11 | 1.10 | 2.67 | 7.10 | 1.51 | 1.08 | 1.64 | 0.73 | 2.20 | 2.85 | 1.31 |  |
| K N L R R I I R K G I H I I K K Y G-CONH2 (KNLRRIIRKGIHIIKKYG-NH2) [Novispirin G10 amide] |  |  |  |  |  |  |  |  |  |  |  |  |  |  |  | MIC (E. coli; +1 mM Ca): 7.26 ± 0.02; MIC (E. coli; +1 mM Mg): 17.2 ± 3.9; MIC (E. coli; No Ca/Mg): 0.06 ± 0.00; MIC (K. pneumoniae; +1 mM Ca): 83.5 ± 6.4; MIC (K. pneumoniae; +1 mM Mg): >250; MIC (K. pneumoniae; No Ca/Mg): 0.12 ± 0.01; MIC (P. aeruginosa; +1 mM Ca): 83.5 ± 6.4; MIC (P. aeruginosa; +1 mM Mg): >250; MIC (P. aeruginosa; No Ca/Mg): 0.12 ± 0.01; MIC (S. aureus): >79 |
| KNLRRIGRKIIHIIKKYG [G7 Novispirin, K N L R R I G R K I I H I I K K Y G] | 0.38 | 0.70 | 0.61 | 0.31 | 0.29 | 0.17 | 0.92 | 2.85 | 0.42 | 0.39 | 0.29 | 0.25 | 0.89 | 1.94 | 0.54 | MIC (E. coli ML 35P [2]; Low Salt (+0 mM NaCl)): 0.2 ± 0.0 µg/mL; MIC (E. coli ML 35P [2]; Normal salinity (+100 mM NaCl)): 0.2 ± 0.0 µg/mL; MIC (E. coli ML 35P [2]; [3]): 1.5 ± 0.4 µg/mL |
| KNLRRITRKIIHIIKKYG [T7 Novispirin, K N L R R I T R K I I H I I K K Y G] | 0.58 | 0.62 | 0.74 | 0.32 | 0.52 | 0.21 | 0.73 | 1.92 | 0.56 | 0.47 | 0.48 | 0.18 | 1.75 | 2.74 | 0.88 | MIC (E. coli ML 35P [2]; Low Salt (+0 mM NaCl)): 0.3 ± 0.1 µg/mL; MIC (E. coli ML 35P [2]; Normal salinity (+100 mM NaCl)): 0.2 ± 0.1 µg/mL; MIC (E. coli ML 35P [2]; [3]): 1.4 ± 0.5 µg/mL |
| Polymyxin B [reference compound] | 0.04 | 0.002 | 0.04 | 0.02 | 0.02 | 0.06 | 0.02 | 0.01 | 0.05 | 0.08 | 0.05 | 0.16 | 0.04 | 0.05 | 0.02 |  |
